Experimental data: Sander's compilation of Henry's law constants (doi:10.1016/j.chroma.2014.03.040)

Assay: Henry solubility constant Hcp at 298.15 K (mol/(m3 Pa))
Conditions: reference: Kim and Kim (2014)

Compound | Henry solubility constant Hcp
Cc1ccccc1C [1,2-dimethylbenzene] | 0.0019
Cc1cccc(C)c1 [1,3-dimethylbenzene] | 0.0013
Cc1ccc(C)cc1 [1,4-dimethylbenzene] | 0.0013
CC(C)CO [2-methyl-1-propanol] | 0.22
CC(C)CC=O [3-methylbutanal] | 0.021
CC(=O)CC(C)C [4-methyl-2-pentanone] | 0.039
c1ccccc1 [benzene] | 0.0017
CCCC=O [butanal] | 0.061
CCCCOC(C)=O [butyl ethanoate] | 0.024
C=Cc1ccccc1 [ethenylbenzene] | 0.0027
Cc1ccccc1 [methylbenzene] | 0.0015
CCCCC=O [pentanal] | 0.039
